Test results: patent US20070020716A1, “Coronary Endothelial Dysfunction” (priority 2005, published 2007)

How the values were obtained:
[1] = tested on: coronary blood flow (left anterior descending coronary artery); assay: Microvascular endothelial function: change in coronary blood flow after intracoronary acetylcholine; assay type: in vivo, human; conditions: maximal dose of intracoronary acetylcholine, unadjusted
Description: (§1) After diagnostic angiography and exclusion of significant obstructive coronary artery disease, endothelium-dependent coronary vasoactivity was assessed as described elsewhere (Suwaidi et al., Circulation, 101:948-954 (2000) and Hasdai et al., Circulation, 96:3390-3395 (1997)). In brief, a Doppler guidewire (Flowire, Volcano Inc.) within a coronary-infusion catheter (Ultrafuse, SciMed Life System) was positioned into the midportion of the left anterior descending coronary artery. Intra-coronary acetylcholine at increasing concentrations of 10^−6, 10^−5, and 10^−4 M was infused to obtain effective coronary concentrations of 10^−8, 10^−7, and 10^−6 M, respectively. Each dose of acetylcholine was infused for three minutes through the infusion catheter into the left anterior descending coronary artery to assess endothelium dependent vasoreactivity. Hemodynamic data, Doppler measurements, and a coronary angiogram were obtained after each infusion. Coronary artery diameter was measured by an independent investigator in the segment 5 mm distal to the tip of the Doppler wire using a computer-based image analysis system. Average peak velocity (APV) was derived from the Doppler flow velocity spectra, and coronary blood flow (CBF) was determined as π(coronary artery diameter/2)^2×(APV/2). […] Endothelium-independent microvascular function was determined by the coronary flow reserve (CFR), which is the ratio of the APV at maximal hyperemia to the APV at baseline. […] Lp-PLA2 levels were measured in plasma aliquots, which were obtained at the time of coronary angiography and stored at −70° C., using an enzyme-linked immunoassay (PLAC™ test, diaDexus, Inc; Caslake et al., Atherosclerosis, 150:413-419 (2000)). […]
Microvascular endothelial function as determined by percentage change in coronary blood flow in response to the maximal dose of intracoronary acetylcholine was measured (FIG. 1). […]

[2] = tested on: coronary artery diameter (left anterior descending coronary artery); assay: Epicardial endothelial function: change in coronary artery diameter after intracoronary acetylcholine; assay type: in vivo, human; conditions: maximal dose of acetylcholine, unadjusted
Description: as §1
Epicardial endothelial function as determined by percentage change in coronary artery diameter in response to the maximal dose of acetylcholine was measured (FIG. 2). […]

[3] = patients in Lp-PLA2 Tertile 1 (110-181.4 ng/mL, N=57)
[4] = patients in Lp-PLA2 Tertile 2 (181.48-239.6 ng/mL, N=58)
[5] = patients in Lp-PLA2 Tertile 3 (240-443 ng/mL, N=57)

CC(=O)OCC[N+](C)(C)C [acetylcholine]
percentage change in coronary blood flow [1, 3]: 78.4±15.2% | percentage change in coronary blood flow [1, 4]: 63.8±73.2% | percentage change in coronary blood flow [1, 5]: 32.0±71.7% | percentage change in coronary artery diameter [2, 3]: −9.5±15.2% | percentage change in coronary artery diameter [2, 4]: −14.1±14.7% | percentage change in coronary artery diameter [2, 5]: −23.3±25.1%
